Source: US20210308089A1, “METHODS OF TREATING AND/OR PREVENTING VIRAL INFECTIONS AND/OR DISEASES CAUSED BY VIRUSES IN A SUBJECT IN NEED THEREOF” (priority 2020, published 2021)

Test system: statin-treated hypertriglyceridemic patients with cardiovascular disease or at high risk for cardiovascular disease
Test: REDUCE-IT: safety, treatment-emergent adverse events (incl. bleeding, atrial fibrillation/flutter, gastrointestinal)
[1] = REDUCE-IT safety population, 4 g/day
[2] = serious bleeding TEAE, % of N = 4089
[3] = serious bleeding TEAE, number (%) of N = 4089
[4] = serious bleeding TEAE, patients, N = 4089

CC/C=C\C/C=C\C/C=C\C/C=C\C/C=C\CCCC(=O)OCC [icosapent ethyl, eicosapentaenoic acid ethyl ester]
Serious TEAE (% of N = 4089): (30.6%)
Serious TEAE Leading to Death (% of N = 4089): (2.3%)
Serious TEAE Leading to Withdrawal of Study Drug (% of N = 4089): (2.2%)
Subjects with at Least One TEAE (% of N = 4089): (81.8%)
TEAE Leading to Withdrawal of Study Drug (% of N = 4089): (7.9%)
Pneumonia, serious treatment-emergent adverse event: % of patients (N = 4089, safety population): 2.6%
Pneumonia, serious treatment-emergent adverse event: number of patients (N = 4089, safety population): 105
Anemia, adverse event rate [1]: 4.7%
Atrial fibrillation, adverse event rate [1]: 5.3%
Diarrhea, adverse event rate [1]: 9%
Gastrointestinal adverse events, rate [1]: 33.0%
Peripheral edema, adverse event rate [1]: 6.5%
Atrial fibrillation or flutter requiring hospitalization (prespecified adjudicated tertiary endpoint) (REDUCE-IT, 4 g/day): 3.1%
Fatal bleeding events (REDUCE-IT, 4 g/day): no fatal bleeding events
Gastrointestinal bleeding (serious) (REDUCE-IT, 4 g/day): 1.5%
Serious central nervous system bleeding (REDUCE-IT, 4 g/day): 0.3%
Tolerability (REDUCE-IT, 4 g/day): well tolerated
Treatment-emergent serious adverse events for bleeding, rate (REDUCE-IT, 4 g/day): 2.7%
Gastrointestinal disorders (TEAE, system organ class, number (%) of N = 4089): 1350 (33.0%)
Anemia (TEAE, number (%) of N = 4089): 191 (4.7%)
Angina pectoris (TEAE, number (%) of N = 4089): 200 (4.9%)
Arthralgia (TEAE, number (%) of N = 4089): 313 (7.7%)
Atrial fibrillation (TEAE, number (%) of N = 4089): 215 (5.3%)
Back pain (TEAE, number (%) of N = 4089): 335 (8.2%)
Bronchitis (TEAE, number (%) of N = 4089): 306 (7.5%)
Cataract (TEAE, number (%) of N = 4089): 233 (5.7%)
Chest pain (TEAE, number (%) of N = 4089): 273 (6.7%)
Constipation (TEAE, number (%) of N = 4089): 221 (5.4%)
Cough (TEAE, number (%) of N = 4089): 241 (5.9%)
Diarrhea (TEAE, number (%) of N = 4089): 367 (9.0%)
Dizziness (TEAE, number (%) of N = 4089): 235 (5.7%)
Dyspnea (TEAE, number (%) of N = 4089): 254 (6.2%)
Fatigue (TEAE, number (%) of N = 4089): 228 (5.6%)
Gastroesophageal Reflux Disease (TEAE, number (%) of N = 4089): 124 (3.0%)
Hypertension (TEAE, number (%) of N = 4089): 320 (7.8%)
Influenza (TEAE, number (%) of N = 4089): 263 (6.4%)
Nasopharyngitis (TEAE, number (%) of N = 4089): 314 (7.7%)
Nausea (TEAE, number (%) of N = 4089): 190 (4.6%)
Osteoarthritis (TEAE, number (%) of N = 4089): 241 (5.9%)
Pain in extremity (TEAE, number (%) of N = 4089): 235 (5.7%)
Peripheral edema (TEAE, number (%) of N = 4089): 267 (6.5%)
Pneumonia (TEAE, number (%) of N = 4089): 263 (6.4%)
Upper respiratory tract infection (TEAE, number (%) of N = 4089): 312 (7.6%)
Urinary tract infection (TEAE, number (%) of N = 4089): 253 (6.2%)
Positively Adjudicated Atrial Fibrillation/Flutter (hospitalization for atrial fibrillation or atrial flutter, number (%) of N = 4089): 127 (3.1%)
Serious TEAE (number of subjects, N = 4089): 1252
Serious TEAE Leading to Death (number of subjects, N = 4089): 94
Serious TEAE Leading to Withdrawal of Study Drug (number of subjects, N = 4089): 88
TEAE Leading to Withdrawal of Study Drug (number of subjects, N = 4089): 321
Subjects with at Least One TEAE (number of subjects, Safety population N = 4089): 3343
Aortic Aneurysm Rupture [2]: (0.0%)
Brain Contusion [2]: (0.0%)
Catheter Site Hemorrhage [2]: (0.0%)
Central Nervous System Bleeding [2]: (0.3%)
Cerebral Hemorrhage [2]: (0.0%)
Cystitis Hemorrhagic [2]: (0.0%)
Diverticulitis Intestinal Hemorrhagic [2]: (0.0%)
Diverticulum Intestinal Hemorrhagic [2]: (0.1%)
Duodenal Ulcer Hemorrhage [2]: (0.0%)
Ecchymosis [2]: (0.0%)
Epistaxis [2]: (0.2%)
Esophageal Hemorrhage [2]: (0.0%)
Extravasation Blood [2]: (0.0%)
Gastric Hemorrhage [2]: (0.0%)
Gastric Ulcer Hemorrhage [2]: (0.1%)
Gastrointestinal Angiodysplasia Hemorrhagic [2]: (0.0%)
Gastrointestinal Bleeding [2]: (1.5%)
Gastrointestinal Hemorrhage [2]: (0.6%)
Genital Hemorrhage [2]: (0.0%)
Hemarthrosis [2]: (0.0%)
Hematemesis [2]: (0.1%)
Hematochezia [2]: (0.0%)
Hematoma [2]: (0.0%)
Hematuria [2]: (0.2%)
Hemoptysis [2]: (0.0%)
Hemorrhagic Anemia [2]: (0.1%)
Hemorrhagic Duodenitis [2]: (0.0%)
Hemorrhagic Transformation Stroke [2]: (0.0%)
Hemorrhoidal Hemorrhage [2]: (0.1%)
Hemothorax [2]: (0.0%)
Immune Thrombocytopenic Purpura [2]: (0.0%)
Intra-Abdominal Hemorrhage [2]: (0.0%)
Intracranial Hemorrhage [2]: (0.0%)
Large Intestinal Hemorrhage [2]: (0.0%)
Lower Gastrointestinal Hemorrhage [2]: (0.1%)
Mallory-Weiss Syndrome [2]: (0.0%)
Melaena [2]: (0.1%)
Menorrhagia [2]: (0.0%)
Mouth Hemorrhage [2]: (0.0%)
Other Bleeding [2]: (1.0%)
Pancreatitis Hemorrhagic [2]: (0.0%)
Patients with Bleeding-Related Disorders [2]: (2.7%)
Peptic Ulcer Hemorrhage [2]: (0.0%)
Pericardial Hemorrhage [2]: (0.0%)
Post Procedural Hematoma [2]: (0.0%)
Post Procedural Hematuria [2]: (0.0%)
Post Procedural Hemorrhage [2]: (0.1%)
Rectal Hemorrhage [2]: (0.2%)
Renal Hemorrhage [2]: (0.0%)
Retinal Hemorrhage [2]: (0.0%)
Retroperitoneal Hematoma [2]: (0.0%)
Retroperitoneal Hemorrhage [2]: (0.0%)
Shock Hemorrhagic [2]: (0.0%)
Subarachnoid Hemorrhage [2]: (0.0%)
Subdural Hematoma [2]: (0.2%)
Subdural Hemorrhage [2]: (0.0%)
Traumatic Hematoma [2]: (0.0%)
Traumatic Intracranial Hemorrhage [2]: (0.0%)
Ulcer Hemorrhage [2]: (0.0%)
Upper Gastrointestinal Hemorrhage [2]: (0.1%)
Urinary Bladder Hemorrhage [2]: (0.0%)
Bleeding related disorders [3]: 111 (2.7%)
Central Nervous System Bleeding [3]: 14 (0.3%)
Gastrointestinal Bleeding [3]: 62 (1.5%)
Other Bleeding [3]: 41 (1.0%)
Aortic Aneurysm Rupture [4]: 1
Brain Contusion [4]: 0
Catheter Site Hemorrhage [4]: 0
Central Nervous System Bleeding [4]: 14
Cerebral Hemorrhage [4]: 0
Cystitis Hemorrhagic [4]: 2
Diverticulitis Intestinal Hemorrhagic [4]: 0
Diverticulum Intestinal Hemorrhagic [4]: 3
Duodenal Ulcer Hemorrhage [4]: 2
Ecchymosis [4]: 1
Epistaxis [4]: 7
Esophageal Hemorrhage [4]: 0
Extravasation Blood [4]: 1
Gastric Hemorrhage [4]: 1
Gastric Ulcer Hemorrhage [4]: 3
Gastrointestinal Angiodysplasia Hemorrhagic [4]: 1
Gastrointestinal Bleeding [4]: 62
Gastrointestinal Hemorrhage [4]: 26
Genital Hemorrhage [4]: 1
Hemarthrosis [4]: 0
Hematemesis [4]: 3
Hematochezia [4]: 1
Hematoma [4]: 1
Hematuria [4]: 8
Hemoptysis [4]: 1
Hemorrhagic Anemia [4]: 4
Hemorrhagic Duodenitis [4]: 0
Hemorrhagic Transformation Stroke [4]: 1
Hemorrhoidal Hemorrhage [4]: 3
Hemothorax [4]: 1
Immune Thrombocytopenic Purpura [4]: 0
Intra-Abdominal Hemorrhage [4]: 1
Intracranial Hemorrhage [4]: 0
Large Intestinal Hemorrhage [4]: 1
Lower Gastrointestinal Hemorrhage [4]: 5
Mallory-Weiss Syndrome [4]: 1
Melaena [4]: 3
Menorrhagia [4]: 1
Mouth Hemorrhage [4]: 0
Other Bleeding [4]: 41
Pancreatitis Hemorrhagic [4]: 1
Patients with Bleeding-Related Disorders [4]: 111
Peptic Ulcer Hemorrhage [4]: 1
Pericardial Hemorrhage [4]: 0
Post Procedural Hematoma [4]: 1
Post Procedural Hematuria [4]: 0
Post Procedural Hemorrhage [4]: 5
Rectal Hemorrhage [4]: 10
Renal Hemorrhage [4]: 0
Retinal Hemorrhage [4]: 1
Retroperitoneal Hematoma [4]: 0
Retroperitoneal Hemorrhage [4]: 1
Shock Hemorrhagic [4]: 2
Subarachnoid Hemorrhage [4]: 2
Subdural Hematoma [4]: 9
Subdural Hemorrhage [4]: 2
Traumatic Hematoma [4]: 2
Traumatic Intracranial Hemorrhage [4]: 0
Ulcer Hemorrhage [4]: 1
Upper Gastrointestinal Hemorrhage [4]: 3
Urinary Bladder Hemorrhage [4]: 1
